Measured values reported in US12685735B2 (Foghorn Therapeutics Inc., priority 2020, dated 2026).
Read-outs that look alike come from different tables or passages of the source.

Assays:
BRM = BRM (Homo sapiens, UniProt P51531); test: ATPase catalytic activity assay of BRM (ADP-Glo); format: biochemical; details: for IC50: read-out: BRM IC50 (μM)*
Experimental: (§1) The ATPase catalytic activity of BRM or BRG-1 was measured by the in vitro biochemical assay using ADP-Glo™ (Promega, V9102). The ADP-Glo™ kinase assay is performed in two steps once the reaction is complete. The first step is to deplete any unconsumed ATP in the reaction. The second step is to convert the reaction product ADP to ATP, which will be utilized by the luciferase to generate luminesce and be detected by a luminescence reader, such as Envision.
(§2) Then following addition of 5 μL of ADP-Glo™ Reagent provided in the kit, the reaction incubates at room temperature for 40 minutes. Then 10 μL of Kinase Detection Reagent provided in the kit is added to convert ADP to ATP, and the reaction incubates at room temperature for 60 minutes. Finally, luminescence measurement is collected with a plate-reading luminometer, such as Envision.
as §1, with “The” for “The ATPase catalytic activity of BRM or BRG-1 was measured by the in vitro biochemical assay using ADP-Glo™ (Promega, V9102). The”

BRG-1 = BRG-1 (Homo sapiens, UniProt P51532); test: ATPase catalytic activity assay of BRG-1 (ADP-Glo); format: biochemical; details: ATPase catalytic activity, ADP-Glo; for IC50: read-out: BRG1 IC50 (μM)*; for Emax: read-out: BRG1 Max % Inhibition
Chain of BRG-1 (P51532 whole entry): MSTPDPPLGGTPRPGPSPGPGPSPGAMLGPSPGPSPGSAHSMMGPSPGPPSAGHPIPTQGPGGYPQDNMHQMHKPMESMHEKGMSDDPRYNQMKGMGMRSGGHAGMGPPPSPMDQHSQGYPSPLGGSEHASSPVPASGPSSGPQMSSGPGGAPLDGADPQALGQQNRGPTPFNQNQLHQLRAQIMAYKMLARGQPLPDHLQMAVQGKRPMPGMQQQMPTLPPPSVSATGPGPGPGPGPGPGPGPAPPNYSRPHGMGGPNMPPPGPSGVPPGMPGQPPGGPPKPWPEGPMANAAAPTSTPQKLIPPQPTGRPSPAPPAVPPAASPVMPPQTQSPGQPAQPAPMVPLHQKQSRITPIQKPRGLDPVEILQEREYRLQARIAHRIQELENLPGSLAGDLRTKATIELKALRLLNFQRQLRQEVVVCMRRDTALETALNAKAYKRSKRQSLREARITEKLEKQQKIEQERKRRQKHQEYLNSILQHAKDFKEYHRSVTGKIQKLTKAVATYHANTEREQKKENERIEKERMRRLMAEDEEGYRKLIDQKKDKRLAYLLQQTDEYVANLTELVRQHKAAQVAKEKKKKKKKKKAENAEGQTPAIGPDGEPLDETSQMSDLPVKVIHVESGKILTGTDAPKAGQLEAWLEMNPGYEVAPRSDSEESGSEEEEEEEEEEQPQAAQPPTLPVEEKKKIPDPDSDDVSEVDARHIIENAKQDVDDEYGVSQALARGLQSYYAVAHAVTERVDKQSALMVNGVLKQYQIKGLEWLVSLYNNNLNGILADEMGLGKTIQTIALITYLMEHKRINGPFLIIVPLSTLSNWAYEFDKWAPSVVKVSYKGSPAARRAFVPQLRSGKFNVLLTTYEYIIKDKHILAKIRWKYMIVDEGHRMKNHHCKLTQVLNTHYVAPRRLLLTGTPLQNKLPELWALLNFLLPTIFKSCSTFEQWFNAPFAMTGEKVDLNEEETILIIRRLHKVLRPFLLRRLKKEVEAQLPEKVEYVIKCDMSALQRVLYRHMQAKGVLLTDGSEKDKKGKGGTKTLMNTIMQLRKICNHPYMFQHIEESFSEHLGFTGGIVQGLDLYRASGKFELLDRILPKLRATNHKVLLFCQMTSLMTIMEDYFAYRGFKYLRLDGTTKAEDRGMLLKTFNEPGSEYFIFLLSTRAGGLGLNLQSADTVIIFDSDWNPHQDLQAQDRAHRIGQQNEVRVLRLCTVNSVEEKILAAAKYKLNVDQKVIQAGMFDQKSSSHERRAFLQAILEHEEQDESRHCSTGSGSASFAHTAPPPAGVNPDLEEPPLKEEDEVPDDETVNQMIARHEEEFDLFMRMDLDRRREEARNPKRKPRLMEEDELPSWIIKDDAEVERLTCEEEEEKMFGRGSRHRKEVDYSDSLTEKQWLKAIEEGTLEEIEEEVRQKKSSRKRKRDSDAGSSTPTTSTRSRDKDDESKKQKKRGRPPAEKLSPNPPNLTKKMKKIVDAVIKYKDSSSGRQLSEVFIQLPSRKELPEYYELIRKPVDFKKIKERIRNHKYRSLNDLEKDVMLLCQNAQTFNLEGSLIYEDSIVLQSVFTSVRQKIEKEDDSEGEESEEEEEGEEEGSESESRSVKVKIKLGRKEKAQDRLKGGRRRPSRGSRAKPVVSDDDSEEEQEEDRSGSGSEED
Experimental: as §1, §2
as §1, with “The” for “The ATPase catalytic activity of BRM or BRG-1 was measured by the in vitro biochemical assay using ADP-Glo™ (Promega, V9102). The”

Chain of BRM (P51531 whole entry): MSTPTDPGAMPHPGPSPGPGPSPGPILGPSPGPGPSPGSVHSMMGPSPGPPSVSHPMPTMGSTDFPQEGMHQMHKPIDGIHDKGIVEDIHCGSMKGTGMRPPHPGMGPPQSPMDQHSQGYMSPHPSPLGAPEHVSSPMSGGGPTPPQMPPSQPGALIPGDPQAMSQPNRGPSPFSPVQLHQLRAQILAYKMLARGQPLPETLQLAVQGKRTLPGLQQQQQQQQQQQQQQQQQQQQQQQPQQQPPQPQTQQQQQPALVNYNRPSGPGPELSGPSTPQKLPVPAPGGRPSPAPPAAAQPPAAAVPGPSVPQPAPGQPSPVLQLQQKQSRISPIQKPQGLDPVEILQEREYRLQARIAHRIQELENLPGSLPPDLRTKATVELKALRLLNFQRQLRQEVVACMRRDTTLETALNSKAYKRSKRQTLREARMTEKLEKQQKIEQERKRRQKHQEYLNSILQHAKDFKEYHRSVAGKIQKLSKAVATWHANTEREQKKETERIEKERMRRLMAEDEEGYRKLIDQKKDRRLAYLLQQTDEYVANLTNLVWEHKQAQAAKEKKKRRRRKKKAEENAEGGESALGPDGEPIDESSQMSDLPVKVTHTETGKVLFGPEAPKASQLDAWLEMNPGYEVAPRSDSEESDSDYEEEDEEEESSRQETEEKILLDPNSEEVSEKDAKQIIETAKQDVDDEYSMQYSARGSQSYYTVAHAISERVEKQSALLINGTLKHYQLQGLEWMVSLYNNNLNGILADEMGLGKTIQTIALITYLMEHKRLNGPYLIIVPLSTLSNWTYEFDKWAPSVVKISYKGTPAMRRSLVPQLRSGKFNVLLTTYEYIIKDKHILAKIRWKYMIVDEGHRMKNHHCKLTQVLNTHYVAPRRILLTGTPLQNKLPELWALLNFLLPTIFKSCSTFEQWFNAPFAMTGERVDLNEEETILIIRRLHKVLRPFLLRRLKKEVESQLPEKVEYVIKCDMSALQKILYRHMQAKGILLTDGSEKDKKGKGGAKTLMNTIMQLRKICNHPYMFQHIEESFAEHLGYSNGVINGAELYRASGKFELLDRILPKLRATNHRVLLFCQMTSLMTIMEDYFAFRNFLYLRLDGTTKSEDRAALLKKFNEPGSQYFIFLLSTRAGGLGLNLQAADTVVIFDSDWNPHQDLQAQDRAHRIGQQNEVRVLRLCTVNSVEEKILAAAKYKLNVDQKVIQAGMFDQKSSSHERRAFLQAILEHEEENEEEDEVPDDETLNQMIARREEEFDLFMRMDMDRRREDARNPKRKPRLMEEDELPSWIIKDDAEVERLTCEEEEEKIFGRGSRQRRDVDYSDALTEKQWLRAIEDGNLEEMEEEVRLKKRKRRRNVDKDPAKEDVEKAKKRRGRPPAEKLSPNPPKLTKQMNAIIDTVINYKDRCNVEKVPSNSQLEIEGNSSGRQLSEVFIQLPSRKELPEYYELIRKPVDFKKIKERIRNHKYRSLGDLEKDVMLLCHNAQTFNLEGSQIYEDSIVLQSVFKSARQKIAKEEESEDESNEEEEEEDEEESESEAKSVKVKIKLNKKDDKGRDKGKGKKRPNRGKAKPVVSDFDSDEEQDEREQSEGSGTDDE

BRM Max % Inhibition (BRM) [%] | IC50 (BRM) [µM] | IC50 (BRG-1) [µM] | Emax (BRG-1) [%] | BRM Max % Inhibition (BRM; 30 nM BRM, 400 μM ATP) [%] | IC50 (BRM; 30 nM BRM, 400 μM ATP) [µM] | IC50 (BRG-1; 30 nM BRG-1, 400 μM ATP) [µM] | Emax (BRG-1; 30 nM BRG-1, 400 μM ATP) [%] | Structure (SMILES)
>80 | 0.1 to 1 | > 5 | > 50 |  |  |  |  | C[C@]1(CO)CCc2ccc(C(=O)NCC(=O)Nc3nc(-c4cccc(-c5cnccn5)n4)cs3)cc21 [Compound 169, (S)-3-(hydroxymethyl)-3-methyl-N-(2-oxo-2-((4-(6-(pyrazin-2-yl)pyridin-2-yl)thiazol-2-yl)amino)ethyl)-2,3-dihydro-1H-indene-5-carboxamide]
>60 | 0.1 to 1 | > 5 | < 30 |  |  |  |  | Cc1cc(C(=O)NCC(=O)Nc2nc(-c3cccc(-c4ccncc4)c3)cs2)cc(S(=O)(=O)C(C)C)c1 [Compound 20, 3-(isopropylsulfonyl)-5-methyl-N-(2-oxo-2-((4-(3-(pyridin-4-yl)phenyl)thiazol-2-yl)amino)ethyl)benzamide]
>90 | 0.1 to 1 | 1 to 5 | > 60 |  |  |  |  | C[C@@H]1CN(c2cccc(-c3csc(NC(=O)CNC(=O)c4cc(C(C)(C)CO)ccc4F)n3)n2)C[C@H](C)O1 [Compound 145, N-[2-[[4-[6-[(cis)-2,6-dimethylmorpholin-4-yl]-2-pyridyl]thiazol-2-yl]amino]-2-oxo-ethyl]-2-fluoro-5-(2-hydroxy-1,1-dimethyl-ethyl)benzamide]
>95 | < 0.1 | 0.1 to 1 | > 95 |  |  |  |  | COc1cccc(-c2csc(NC(=O)CNC(=O)c3cc(F)c4c(c3)[C@](C)(C#N)COC4)n2)c1 [Compound 270, (R)-4-cyano-8-fluoro-N-(2-((4-(3-methoxyphenyl)thiazol-2-yl)amino)-2-oxoethyl)-4-methylisochromane-6-carboxamide]
>90 | 0.1 to 1 | 1 to 5 | > 70 |  |  |  |  | Cn1ccc2ccc(-c3csc(NC(=O)CNC(=O)c4ccc5c(c4)[C@@](C)(CO)CC5)n3)cc2c1=O [Compound 181, (S)-3-(hydroxymethyl)-3-methyl-N-(2-((4-(2-methyl-1-oxo-1,2-dihydroisoquinolin-7-yl)thiazol-2-yl)amino)-2-oxoethyl)-2,3-dihydro-1H-indene-5-carboxamide]
>95 | 0.1 to 1 | 1 to 5 | > 95 |  |  |  |  | CC1(C#N)CCOc2ccc(C(=O)NCC(=O)Nc3nc(-c4cccc([C@H]5CC5(F)F)n4)cs3)cc21 (stereo in doubt) [Compound 378, (S)-4-cyano-N-(2-((4-(6-((R)-2,2-difluorocyclopropyl)pyridin-2-yl)thiazol-2-yl)amino)-2-oxoethyl)-4-methylchromane-6-carboxamide]
>95 | < 0.1 | 0.1 to 1 | > 95 |  |  |  |  | C[C@@H]1CN(c2cccc(-c3csc(NC(=O)CNC(=O)c4ccc5c(c4)C(O)(C(F)F)COC5)n3)c2)C[C@H](C)O1 (stereo partly drawn) [Compound 326, 4-(difluoromethyl)-N-(2-((4-(3-((cis)-2,6-dimethylmorpholino)phenyl)thiazol-2-yl)amino)-2-oxoethyl)-4-hydroxyisochromane-6-carboxamide]
 |  |  |  | >95 | < 0.1 | 0.1 to 1 | > 95 | CC1(C#N)CCOc2ccc(C(=O)NCC(=O)Nc3nc(-c4cccc(N5CCC5)c4)cs3)cc21 (stereo in doubt) [Compound 416, (S)-N-(2-((4-(3-(azetidin-1-yl)phenyl)thiazol-2-yl)amino)-2-oxoethyl)-4-cyano-4-methylchromane-6-carboxamide]
>95 | 0.1 to 1 | 1 to 5 | > 70 |  |  |  |  | Cc1nccc(-c2cccc(-c3csc(NC(=O)CNC(=O)c4ccc(C)c(C(C)(C)CN)c4)n3)n2)n1 [Compound 206, 3-(2-amino-1,1-dimethyl-ethyl)-4-methyl-N-[2-[[4-[6-(2-methylpyrimidin-4-yl)-2-pyridyl]thiazol-2-yl]amino]-2-oxo-ethyl]benzamide]
>95 | < 0.1 | 0.1 to 1 | > 95 |  |  |  |  | C[C@@]1(F)COCc2ccc(C(=O)NCC(=O)Nc3nc(-c4ccnc(C5(O)CC5)c4)cs3)cc21 [Compound 330, (S)-4-fluoro-N-(2-((4-(2-(1-hydroxycyclopropyl)pyridin-4-yl)thiazol-2-yl)amino)-2-oxoethyl)-4-methylisochromane-6-carboxamide]
>95 | < 0.1 | 0.1 to 1 | > 95 |  |  |  |  | C[C@@H]1CN(c2cccc(-c3csc(NC(=O)CNC(=O)c4ccc5c(c4)[C@@](F)(C#N)COC5)n3)n2)C[C@H](C)O1 (single isomer, unassigned) [Compound 299]
>95 | < 0.1 | < 0.1 | > 95 |  |  |  |  | C[C@@H]1CN(c2cccc(-c3csc(NC(=O)CNC(=O)c4ccc5c(c4)[C@](F)(C(F)F)CCO5)n3)c2)C[C@H](C)O1 [Compound 274, (S)-4-(difluoromethyl)-N-(2-((4-(3-((cis)-2,6-dimethylmorpholino)phenyl)thiazol-2-yl)amino)-2-oxoethyl)-4-fluorochromane-6-carboxamide]
 |  |  |  | >90 | 0.1 to 1 | > 5 | > 90 | C[C@@H]1CN(c2cccc(-c3csc(NC(=O)CNC(=O)c4cccc(C5(F)CCOC5)c4)n3)n2)C[C@H](C)O1 (stereo in doubt) [Compound 441, N-(2-((4-(6-((cis)-2,6-dimethylmorpholino)pyridin-2-yl)thiazol-2-yl)amino)-2-oxoethyl)-3-((R)-3-fluorotetrahydrofuran-3-yl)benzamide]
>95 | < 0.1 | 0.1 to 1 | > 95 |  |  |  |  | C[C@@]1(F)COCc2ccc(C(=O)NCC(=O)Nc3nc(-c4ccccc4)cs3)cc21 [Compound 303, (S)-4-fluoro-4-methyl-N-(2-oxo-2-((4-phenylthiazol-2-yl)amino)ethyl)isochromane-6-carboxamide]
>90 | 1 to 5 | 0.1 to 1 | > 80 |  |  |  |  | CCC(C)(O)c1cccc(C(=O)NCC(=O)Nc2nc(-c3cccc(-c4ccncc4)c3)cs2)c1 (single isomer, unassigned) [Compound 80]
>90 | 0.1 to 1 | 0.1 to 1 | > 90 |  |  |  |  | C[C@@H]1CN(c2cccc(-c3csc(NC(=O)CNC(=O)c4ccc5c(c4)[C@@](C)(F)COC5)n3)n2)C[C@H](C)O1 [Compound 412, (R)-N-(2-((4-(6-((cis)-2,6-dimethylmorpholino)pyridin-2-yl)thiazol-2-yl)amino)-2-oxoethyl)-4-fluoro-4-methylisochromane-6-carboxamide]

Structure (SMILES) | BRM Max % Inhibition (BRM) [%] | IC50 (BRM) [µM] | IC50 (BRG-1) [µM] | Emax (BRG-1) [%] | BRM Max % Inhibition (BRM; 30 nM BRM, 400 μM ATP) [%] | IC50 (BRM; 30 nM BRM, 400 μM ATP) [µM] | IC50 (BRG-1; 30 nM BRG-1, 400 μM ATP) [µM] | Emax (BRG-1; 30 nM BRG-1, 400 μM ATP) [%]
CC(C)S(=O)(=O)c1cccc(C(=O)NCC(=O)Nc2nc(-c3cccc(-c4ccnc(C(F)(F)F)c4)c3)cs2)c1 [Compound 19, 3-(isopropylsulfonyl)-N-(2-oxo-2-((4-(3-(2-(trifluoromethyl)pyridin-4-yl)phenyl)thiazol-2-yl)amino)ethyl)benzamide] | >90 | 0.1 to 1 | 1 to 5 |  |  |  |  | 
